What was measured:
[1] = target: JAK2 (Homo sapiens (Human), UniProt O60674); test: Jak Biochemical HTRF Assay, JAK2; conditions: HTRF biochemical assay, GST-tagged catalytic domain; top concentration tested […]
Excerpt: (§1) Jak Biochemical HTRF Assay Protocol
(§2) Subsequent reagent additions employed an Agilent Bravo.

[2] = target: JAK1 (Homo sapiens (Human), UniProt P23458); test: Jak Biochemical HTRF Assay, JAK1; conditions: HTRF biochemical assay, GST-tagged catalytic domain; top concentration tested […]; read-out: JAK1 IC50
Sequence of JAK1 (P23458 875-1153): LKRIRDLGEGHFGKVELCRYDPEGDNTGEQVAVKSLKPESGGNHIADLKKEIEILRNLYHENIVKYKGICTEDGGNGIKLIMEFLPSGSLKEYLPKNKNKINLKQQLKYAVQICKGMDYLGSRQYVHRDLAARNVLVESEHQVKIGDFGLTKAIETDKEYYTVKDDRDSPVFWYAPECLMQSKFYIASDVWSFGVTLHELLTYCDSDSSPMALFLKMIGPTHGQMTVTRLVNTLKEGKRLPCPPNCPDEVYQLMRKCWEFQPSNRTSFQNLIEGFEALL
Excerpt: as §1, §2

Sequence of JAK2 (O60674 849-1124): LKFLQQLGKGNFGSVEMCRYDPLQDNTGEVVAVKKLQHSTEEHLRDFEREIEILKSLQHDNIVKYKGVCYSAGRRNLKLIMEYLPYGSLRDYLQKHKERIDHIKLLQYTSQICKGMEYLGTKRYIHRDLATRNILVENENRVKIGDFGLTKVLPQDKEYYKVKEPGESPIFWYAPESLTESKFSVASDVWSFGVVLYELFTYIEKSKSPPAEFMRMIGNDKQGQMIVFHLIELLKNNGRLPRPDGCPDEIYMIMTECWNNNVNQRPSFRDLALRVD

Row | SMILES | IC50 [1] [nM] | IC50 [2] [nM]
1 | CC(C)(C)OC(=O)N1CCC(CC#N)(n2cc(C(N)=O)c(Nc3ccc(C#N)cc3)n2)CC1 [Example 9-5, tert-butyl 4-{4-carbamoyl-3-[(4-cyanophenyl)amino]-1H-pyrazol-1-yl}-4-(cyanomethyl)piperidine-1-carboxylate] | 6 | 0.2
2 | CC(O)c1ccc(Nc2nn(C3(CC#N)CCN(C(=O)OC(C)(C)C)CC3)cc2C(N)=O)cc1 (centres unmarked) [Example 9-9, tert-butyl 4-(4-carbamoyl-3-(4-(1-hydroxyethyl)phenylamino)-1H-pyrazol-1-yl)-4-(cyanomethyl)piperidine-1-carboxylate] | 6 | 0.4
3 | CC(C)(C)OC(=O)N1CCC(CC#N)(n2cc(C(N)=O)c(Nc3ccc(C#N)nc3)n2)CC1 [Example 9-12, tert-butyl 4-{4-carbamoyl-3-[(6-cyanopyridin-3-yl)amino]-1H-pyrazol-1-yl}-4-(cyanomethyl)piperidine-1-carboxylate] | 6 | 0.5
4 | Cn1ccc(-c2ccc(Nc3nn(C4(CC#N)CCN(C(=O)OC(C)(C)C)CC4)cc3C(N)=O)cc2)n1 [Example 9-13, tert-butyl 4-(4-carbamoyl-3-{[4-(1-methyl-1H-pyrazol-3-yl)phenyl]amino}-1H-pyrazol-1-yl)-4-(cyanomethyl)piperidine-1-carboxylate] | 138 | 3
5 | Cc1cc(Nc2nn(C3(CC#N)CCN(C(=O)OC(C)(C)C)CC3)cc2C(N)=O)ccn1 [Example 9-17, tent-butyl 4-{4-carbamoyl-3-[(2-methylpyridin-4-yl)amino]-1H-pyrazol-1-yl}-4-(cyanomethyl)piperidine-1-carboxylate] | 133 | 15
6 | CC(C)(C)OC(=O)N1CCC(CC#N)(n2cc(C(N)=O)c(Nc3ccnc(CO)c3)n2)CC1 [Example 9-18, tert-butyl 4-(4-carbamoyl-3-{[2-(hydroxymethyl)pyridin-4-yl]amino}-1H-pyrazol-1-yl)-4-(cyanomethyl)piperidine-1-carboxylate] | 101 | 6
7 | CC(C)(C)OC(=O)N1CCC(CC#N)(n2cc(C(N)=O)c(Nc3ccc(C#N)c(F)c3)n2)CC1 [Example 9-26, tert-butyl 4-{4-carbamoyl-3-[(4-cyano-3-fluorophenyl)amino]-1H-pyrazol-1-yl}-4-(cyanomethyl)piperidine-1-carboxylate] | 7 | 0.4
8 | CC(C)(C)OC(=O)N1CCC(CC#N)(n2cc(C(N)=O)c(Nc3ccc(F)c(F)c3)n2)CC1 [Example 9-28, tert-butyl 4-{4-carbamoyl-3-[(3,4-difluorophenyl)amino]-1H-pyrazol-1-yl}-4-(cyanomethyl)piperidine-1-carboxylate] | 24 | 1
9 | Cc1noc(-c2ccc(Nc3nn(C4(CC#N)CCN(C(=O)OC(C)(C)C)CC4)cc3C(N)=O)cc2)n1 [Example 9-30, tert-butyl 4-(4-carbamoyl-3-{[4-(3-methyl-1,2,4-oxadiazol-5-yl)phenyl]amino}-1H-pyrazol-1-yl)-4-(cyanomethyl)piperidine-1-carboxylate] | 5 | 0.2
10 | Cc1nc(-c2ccc(Nc3nn(C4(CC#N)CCN(C(=O)OC(C)(C)C)CC4)cc3C(N)=O)cc2)no1 [Example 9-32, tert-butyl 4-(4-carbamoyl-3-{[4-(5-methyl-1,2,4-oxadiazol-3-yl)phenyl]amino}-1H-pyrazol-1-yl)-4-(cyanomethyl)piperidine-1-carboxylate] | 8 | 0.3
11 | CC(C)(C)OC(=O)N1CCC(CC#N)(n2cc(C(N)=O)c(Nc3ccnc(C#N)c3)n2)CC1 [Example 9-33, tert-butyl 4-{4-carbamoyl-3-[(2-cyanopyridin-4-yl)amino]-1H-pyrazol-1-yl}-4-(cyanomethyl)piperidine-1-carboxylate] | 6 | 0.2
12 | CC(C)(C)OC(=O)N1CCC(CC#N)(n2cc(C(N)=O)c(Nc3cncc(F)c3)n2)CC1 [Example 9-35, tert-butyl 4-{4-carbamoyl-3-[(5-fluoropyridin-3-yl)amino]-1H-pyrazol-1-yl}-4-(cyanomethyl)piperidine-1-carboxylate] | 16 | 1
13 | CC(C)(C)OC(=O)N1CCC(CC#N)(n2cc(C(N)=O)c(Nc3cncc(Cl)c3)n2)CC1 [Example 9-36, tert-butyl 4-{4-carbamoyl-3-[(5-chloropyridin-3-yl)amino]-1H-pyrazol-1-yl}-4-(cyanomethyl)piperidine-1-carboxylate] | 21 | 0.9
14 | COc1cc(Nc2nn(C3(CC#N)CCN(C(=O)OCC(F)F)CC3)cc2C(N)=O)ccn1 [Example 9-39, 2,2-difluoroethyl 4-{4-carbamoyl-3-[(2-methoxypyridin-4-yl)amino]-1H-pyrazol-1-yl}-4-(cyanomethyl)piperidine-1-carboxylate] | 348 | 7

Now those with a lower IC50 [1], led by results:

Row | IC50 [1] [nM] | IC50 [2] [nM] | SMILES
15 | 3 | 0.8 | CC(C)(C)OC(=O)N1CCC(CC#N)(n2cc(C(N)=O)c(Nc3ccc(C(C)(C)O)nc3)n2)CC1 [Example 9-6, tert-butyl 4-(4-carbamoyl-3-(6-(2-hydroxypropan-2-yl)pyridin-3-ylamino)-1H-pyrazol-1-yl)-4-(cyanomethyl)piperidine-1-carboxylate]
16 | 2 | 0.5 | CC(O)c1ccc(Nc2nn(C3(CC#N)CCN(C(=O)OC(C)(C)C)CC3)cc2C(N)=O)cn1 (centres unmarked) [Example 9-7, tert-butyl 4-(4-carbamoyl-3-(6-(1-hydroxyethyl)pyridin-3-ylamino)-1H-pyrazol-1-yl)-4-(cyanomethyl)piperidine-1-carboxylate]
17 | 3 | 0.3 | CC(C)(C)OC(=O)N1CCC(CC#N)(n2cc(C(N)=O)c(Nc3ccc(C(C)(C)O)cc3)n2)CC1 [Example 9-8, tert-butyl 4-(4-carbamoyl-3-(4-(2-hydroxypropan-2-yl)phenylamino)-1H-pyrazol-1-yl)-4-(cyanomethyl)piperidine-1-carboxylate]
18 | 3 | 0.2 | CC(=O)c1ccc(Nc2nn(C3(CC#N)CCN(C(=O)OC(C)(C)C)CC3)cc2C(N)=O)cc1 [Example 9-10, tert-butyl 4-(3-(4-acetylphenylamino)-4-carbamoyl-1H-pyrazol-1-yl)-4-(cyanomethyl)piperidine-1-carboxylate]
19 | 3 | 0.2 | CC(C)(C)OC(=O)N1CCC(CC#N)(n2cc(C(N)=O)c(Nc3ccc(C(=O)C(F)(F)F)cc3)n2)CC1 [Example 9-11, tert-butyl 4-(4-carbamoyl-3-{[4-(trifluoroacetyl)phenyl]amino}-1H-pyrazol-1-yl)-4-(cyanomethyl)piperidine-1-carboxylate]
20 | 3 | 0.2 | CC(C)(C)OC(=O)N1CCC(CC#N)(n2cc(C(N)=O)c(Nc3ccnc(N)c3)n2)CC1 [Example 9-14, tert-butyl 4-{3-[(2-aminopyridin-4-yl)amino]-4-carbamoyl-1H-pyrazol-1-yl}-4-(cyanomethyl)piperidine-1-carboxylate]
21 | 0.6 | 0.09 | CC(C)(C)OC(=O)N1CCC(CC#N)(n2cc(C(N)=O)c(Nc3ccc(S(=O)(=O)C(F)F)cc3)n2)CC1 [Example 9-16, tert-butyl 4-[4-carbamoyl-3-({4-[(difluoromethyl)sulfonyl]phenyl}amino)-1H-pyrazol-1-yl]-4-(cyanomethyl)piperidine-1-carboxylate]
22 | 1 | 0.1 | CC(C)(C)OC(=O)N1CCC(CC#N)(n2cc(C(N)=O)c(Nc3ccc(S(N)(=O)=O)cc3)n2)CC1 [Example 9-20, tert-butyl 4-{4-carbamoyl-3-[(4-sulfamoylphenyl)amino]-1H-pyrazol-1-yl}-4-(cyanomethyl)piperidine-1-carboxylate]
23 | 0.8 | 0.3 | CN(C)S(=O)(=O)c1ccc(Nc2nn(C3(CC#N)CCN(C(=O)OC(C)(C)C)CC3)cc2C(N)=O)cc1 [Example 9-21, tert-butyl 4-(4-carbamoyl-3-{[4-(dimethylsulfamoyl)phenyl]amino}-1H-pyrazol-1-yl)-4-(cyanomethyl)piperidine-1-carboxylate]
24 | 0.7 | 0.2 | CC(C)(C)OC(=O)N1CCC(CC#N)(n2cc(C(N)=O)c(Nc3ccc(C(=O)N4CCOCC4)c(F)c3)n2)CC1 [Example 9-24, tert-butyl 4-(4-carbamoyl-3-{[3-fluoro-4-(morpholin-4-ylcarbonyl)phenyl]amino}-1H-pyrazol-1-yl)-4-(cyanomethyl)piperidine-1-carboxylate]
25 | 0.7 | 0.3 | CC(C)(C)OC(=O)N1CCC(CC#N)(n2cc(C(N)=O)c(Nc3ccc(C(=O)N4CCOCC4)cc3)n2)CC1 [Example 9-25, tert-butyl 4-(4-carbamoyl-3-{[4-(morpholin-4-ylcarbonyl)phenyl]amino}-1H-pyrazol-1-yl)-4-(cyanomethyl)piperidine-1-carboxylate]
26 | 3 | 0.1 | CC(C)(C)OC(=O)N1CCC(CC#N)(n2cc(C(N)=O)c(Nc3ccnc(Cl)c3)n2)CC1 [Example 9-29, tert-butyl 4-{4-carbamoyl-3-[(2-chloropyridin-4-yl)amino]-1H-pyrazol-1-yl}-4-(cyanomethyl)piperidine-1-carboxylate]
27 | 4 | 0.5 | CC(C)(C)OC(=O)N1CCC(CC#N)(n2cc(C(N)=O)c(Nc3cccnc3)n2)CC1 [Example 9-34, tert-butyl 4-[4-carbamoyl-3-(pyridin-3-ylamino)-1H-pyrazol-1-yl]-4-(cyanomethyl)piperidine-1-carboxylate]
28 | 3 | 0.3 | N#CCC1(n2cc(C(N)=O)c(Nc3ccc(C4CCC4)nc3)n2)CCN(C(=O)OCC(F)F)CC1 [Example 9-38, 2,2-difluoroethyl 4-{4-carbamoyl-3-[(6-cyclobutylpyridin-3-yl)amino]-1H-pyrazol-1-yl}-4-(cyanomethyl)piperidine-1-carboxylate]
